Test results reported in article PMC6270063, “Novel Antimicrobial Peptide Dendrimers with Amphiphilic Surface and Their Interactions with Phospholipids — Insights from Mass Spectrometry” (Molecules, 2013).
Converted amounts (≈) assume the structure as drawn. Like-named read-outs stand apart in the source and are kept apart here.

Tests used:
[1] = test system: E. coli ATCC 25922
Description: (§1) The bacteria Staphylococcus aureus ATCC 25923, Staphylococcus aureus ATCC 43300,Escherichia coli ATCC 25922 and Pseudomonas aeruginosa ATCC 27853 were cultivated on tryptone-soy agar (TSA; Oxoid) for 24 h at 37 °C. Broth microdilution susceptibility tests were performed as described in the Committee Laboratory Standards (CLSI) reference method M07-A8 [41]. Bacteria inocula (5 µL) containing 10^6 CFU/mL were used. The final concentration of dendrimers ranged from 256 to 2 µg/mL, polymyxin B and penicillin G from 8 to 0,15 µg/mL (or 5.8 to 0.1 µM and 21.5 to 0.4 µM, respectively for polymyxin B and penicillin G) were the reference compounds. The plates were incubated at 35 °C and were read after 18 or 24 h depending on the bacterial strain. Minimal Inhibitory Concentrations (MICs) were defined as the lowest drug concentration that reduced the growth by 100%.

[2] = test system: S. aureus ATCC 25923; assay: microbe, parasite or virus in culture
Description: as §1

[3] = test system: S. aureus ATCC 43300
Description: as §1

[4] = test system: P. aeruginosa ATCC 27853
Description: as §1

[5] = test system: human red blood cells; assay: Hemolysis assay; assay type: cell-based; conditions: 1% hematocrit in PBS pH 7.4, 30 min at 23 °C, from Figure 4
Description: Dendrimer-induced hemolysis was measured as previously reported. Briefly, human red blood cells obtained from healthy volunteers, were suspended in phosphate buffered saline (PBS, pH 7.4). Prepared suspension of 1% hematocrit was incubated with serial concentration of dendrimers for 30 min at 23 °C. After centrifugation (4,000 rpm, 5 min) the absorbance of supernatant was measured at 540 nm (Spectrostar Omega, BMG Labtech, Ortenberg, Germany). A value of 100% hemolysis was determined by incubation of erythrocytes with double-distilled water (30 min at 23 °C). In a control experiment, cells were incubated in buffer without peptide and absorbance at 540 nm value was used as a blank:
A: Absorbance of the samples incubated with dendrimers;
Ab: Absorbance of the blank samples;
A100%: Absorbance of the reference;
Ac: Absorbance of red blood cells in PBS, hematocrit 1%.

[6] = test system: E. coli ATCC 25922; assay type: cell-based, Escherichia coli; conditions: for Activity (MIC) at 200 µM Na+ or K+ concentration / Change of bioactivity on increase of Ca2+ and Mg2+ concentration / Sensitivity of MIC to increase of Na+ or K+ concentration: E. coli ATCC 25922; for Activity (MIC) at 200 µM Na+ or K+ concentration / Sensitivity of MIC to increase of Na+ or K+ concentration: triplicate; for Change of bioactivity on increase of Ca2+ and Mg2+ concentration: Ca2+ and Mg2+ up to 5 mM; for Sensitivity of MIC to increase of Na+ or K+ concentration: Na+ or K+ up to 100 µM, CAMHB with added NaCl or KCl
Description: as §1
The effect of salt concentration on the antimicrobial activity of two dendrimers was tested by determining the MICs under a variety of cations concentrations. CAMHB used in the assay was altered by the addition of salt. NaCl or KCl were added to the media to a final concentrations of 10, 50, 100, 200, 500 mM, wheareas CaCl2 or MgCl2 were added to the media to a final concentrations of 0.5, 1.5, 2.5, 5.5, 10.5, and 20.5 mM. Additionally, similar test was performed using MHB (without Ca^2+, Mg^2+) for divalent cations Ca^2+ and Mg^2+. Experiment was performed in triplicate.

[7] = methicillin-resistant strain, broth microdilution CLSI M07-A8, CAMHB with 0.5 mM Ca2+ and Mg2+, 35 °C, 18 or 24 h
[8] = broth microdilution CLSI M07-A8, CAMHB with 0.5 mM Ca2+ and Mg2+, 35 °C, 18 or 24 h
[9] = broth microdilution CLSI M07-A8, CAMHB with 0.5 mM Ca2+ and Mg2+, no K+ and Na+, 35 °C, read after 18 or 24 h, MIC = lowest concentration reducing growth by 100%

CCCCCCCCCCCCNC(=O)[C@H](CCCN(CCC(=O)NCCNC(=O)[C@H](CCCCN)NC(=O)OCc1ccccc1Cl)CCC(=O)NCCNC(=O)[C@H](CCCCN)NC(=O)OCc1ccccc1Cl)N(CCC(=O)NCCNC(=O)[C@H](CCCCN)NC(=O)OCc1ccccc1Cl)CCC(=O)NCCNC(=O)[C@H](CCCCN)NC(=O)OCc1ccccc1Cl [Dendrimer 3d]
Minimal inhibitory concentration (MIC), E. coli ATCC 25922 ([1]; ATCC 25922, 24 h): 1.85 µM (≈ 3.59 µg/mL)
Minimal inhibitory concentration (MIC), S. aureus ATCC 25923 ([2]; ATCC 25923, 24 h): 1.85 µM (≈ 3.59 µg/mL)

N[C@@H](CCCCNC(=O)OCc1ccccc1Cl)C(=O)NCCNC(=O)CCN(CCC[C@@H](C(=O)NCCc1cnc[nH]1)N(CCC(=O)NCCNC(=O)[C@@H](N)CCCCNC(=O)OCc1ccccc1Cl)CCC(=O)NCCNC(=O)[C@@H](N)CCCCNC(=O)OCc1ccccc1Cl)CCC(=O)NCCNC(=O)[C@@H](N)CCCCNC(=O)OCc1ccccc1Cl [Dendrimer 3g]
Minimal inhibitory concentration (MIC), S. aureus ATCC 43300 ([3]; ATCC 43300, 24 h): 16.4 µM (≈ 30.7 µg/mL)
Minimal inhibitory concentration (MIC), E. coli ATCC 25922 ([1]; ATCC 25922, 24 h): 211 µM (≈ 394 µg/mL)
Minimal inhibitory concentration (MIC), P. aeruginosa ATCC 27853 ([4]; ATCC 27853, 24 h): 211 µM (≈ 394 µg/mL)
Minimal inhibitory concentration (MIC), S. aureus ATCC 25923 ([2]; ATCC 25923, 24 h): 51 µM (≈ 95.3 µg/mL)

N[C@@H](CCCCNC(=O)OCc1ccccc1Cl)C(=O)NCCNC(=O)CCN(CCC[C@@H](C(=O)Nc1cccnc1)N(CCC(=O)NCCNC(=O)[C@@H](N)CCCCNC(=O)OCc1ccccc1Cl)CCC(=O)NCCNC(=O)[C@@H](N)CCCCNC(=O)OCc1ccccc1Cl)CCC(=O)NCCNC(=O)[C@@H](N)CCCCNC(=O)OCc1ccccc1Cl [Dendrimer 3e]
Minimal inhibitory concentration (MIC), S. aureus ATCC 43300 [3, 7]: 142 µM (≈ 263 µg/mL)
Minimal inhibitory concentration (MIC), E. coli ATCC 25922 [1, 8]: 142 µM (≈ 263 µg/mL)
Minimal inhibitory concentration (MIC), P. aeruginosa ATCC 27853 [4, 8]: 142 µM (≈ 263 µg/mL)
Minimal inhibitory concentration (MIC), S. aureus ATCC 25923 [2, 9]: 16.6 µM (≈ 30.7 µg/mL)
Hemotoxicity (level) [5]: highest hemotoxicity and high

NCCCC[C@H](NC(=O)OCc1ccccc1Cl)C(=O)NCCNC(=O)CCN(CCC[C@@H](C(=O)Nc1cccnc1)N(CCC(=O)NCCNC(=O)[C@H](CCCCN)NC(=O)OCc1ccccc1Cl)CCC(=O)NCCNC(=O)[C@H](CCCCN)NC(=O)OCc1ccccc1Cl)CCC(=O)NCCNC(=O)[C@H](CCCCN)NC(=O)OCc1ccccc1Cl [Dendrimer 3a]
Minimal inhibitory concentration (MIC), S. aureus ATCC 43300 [3, 7]: >252 µM
Minimal inhibitory concentration (MIC), E. coli ATCC 25922 [1, 8]: >252 µM
Minimal inhibitory concentration (MIC), P. aeruginosa ATCC 27853 [4, 8]: >252 µM
Minimal inhibitory concentration (MIC), S. aureus ATCC 25923 [2, 9]: 2.85 µM (≈ 5.28 µg/mL)
Hemotoxicity (level) [5]: much lower toxicity and low

NCCCC[C@H](NC(=O)OCc1ccccc1Cl)C(=O)NCCNC(=O)CCN(CCC[C@@H](C(=O)NCCc1c[nH]c2ccccc12)N(CCC(=O)NCCNC(=O)[C@H](CCCCN)NC(=O)OCc1ccccc1Cl)CCC(=O)NCCNC(=O)[C@H](CCCCN)NC(=O)OCc1ccccc1Cl)CCC(=O)NCCNC(=O)[C@H](CCCCN)NC(=O)OCc1ccccc1Cl [Dendrimer 3b]
Minimal inhibitory concentration (MIC), S. aureus ATCC 43300 [3, 7]: 12.1 µM (≈ 23.2 µg/mL)
Minimal inhibitory concentration (MIC), E. coli ATCC 25922 [1, 8]: 12.1 µM (≈ 23.2 µg/mL)
Minimal inhibitory concentration (MIC), P. aeruginosa ATCC 27853 [4, 8]: 51 µM (≈ 97.8 µg/mL)
MIC in presence of Ca2+ ([6]; ATCC 25922, 24 h): 119.8 µM
Activity (MIC) at 200 µM Na+ or K+ concentration [6]: retained much activity
Change of bioactivity on increase of Ca2+ and Mg2+ concentration [6]: slow decrease
Sensitivity of MIC to increase of Na+ or K+ concentration [6]: not sensitive
Minimal inhibitory concentration (MIC), S. aureus ATCC 25923 [2, 9]: 1.87 µM (≈ 3.59 µg/mL)

N[C@@H](CCCCNC(=O)OCc1ccccc1Cl)C(=O)NCCNC(=O)CCN(CCC[C@@H](C(=O)NCCc1c[nH]c2ccccc12)N(CCC(=O)NCCNC(=O)[C@@H](N)CCCCNC(=O)OCc1ccccc1Cl)CCC(=O)NCCNC(=O)[C@@H](N)CCCCNC(=O)OCc1ccccc1Cl)CCC(=O)NCCNC(=O)[C@@H](N)CCCCNC(=O)OCc1ccccc1Cl [Dendrimer 3f]
Minimal inhibitory concentration (MIC), S. aureus ATCC 43300 [3, 7]: 20.4 µM (≈ 39.1 µg/mL)
Minimal inhibitory concentration (MIC), E. coli ATCC 25922 [1, 8]: 7.9 µM (≈ 15.2 µg/mL)
Minimal inhibitory concentration (MIC), P. aeruginosa ATCC 27853 [4, 8]: 60 µM (≈ 115 µg/mL)
MIC in presence of Mg2+ ([6]; ATCC 25922, 24 h): 119.8 µM
Activity (MIC) at 200 µM Na+ or K+ concentration [6]: retained much activity
Change of bioactivity on increase of Ca2+ and Mg2+ concentration [6]: slow decrease
Sensitivity of MIC to increase of Na+ or K+ concentration [6]: not sensitive
Minimal inhibitory concentration (MIC), S. aureus ATCC 25923 [2, 9]: 0.93 µM (≈ 1.78 µg/mL)

CC1(C)S[C@@H]2[C@H](NC(=O)Cc3ccccc3)C(=O)N2[C@H]1C(=O)O [Penicillin G, reference compound]
MIC ([2]; Staphylococcus aureus, ATCC25923, read-out: Minimal inhibitory concentration (MIC), S. aureus ATCC 25923): 6.6 µM (≈ 2.21 µg/mL)

CCCCCCCCCCCCNC(=O)[C@H](CCCN(CCC(=O)NCCNC(=O)[C@@H](N)CCCCNC(=O)OCc1ccccc1Cl)CCC(=O)NCCNC(=O)[C@@H](N)CCCCNC(=O)OCc1ccccc1Cl)N(CCC(=O)NCCNC(=O)[C@@H](N)CCCCNC(=O)OCc1ccccc1Cl)CCC(=O)NCCNC(=O)[C@@H](N)CCCCNC(=O)OCc1ccccc1Cl [Dendrimer 3h]
Minimal inhibitory concentration (MIC), S. aureus ATCC 43300 ([3]; ATCC 43300, 24 h): 1.85 µM (≈ 3.59 µg/mL)
Minimal inhibitory concentration (MIC), E. coli ATCC 25922 ([1]; ATCC 25922, 24 h): 7.9 µM (≈ 15.4 µg/mL)
Minimal inhibitory concentration (MIC), P. aeruginosa ATCC 27853 ([4]; ATCC 27853, 24 h): 32 µM (≈ 62.2 µg/mL)
Minimal inhibitory concentration (MIC), S. aureus ATCC 25923 ([2]; ATCC 25923, 24 h): 3.7 µM (≈ 7.19 µg/mL)

NCCCC[C@H](NC(=O)OCc1ccccc1Cl)C(=O)NCCNC(=O)CCN(CCC[C@@H](C(=O)NCCc1cnc[nH]1)N(CCC(=O)NCCNC(=O)[C@H](CCCCN)NC(=O)OCc1ccccc1Cl)CCC(=O)NCCNC(=O)[C@H](CCCCN)NC(=O)OCc1ccccc1Cl)CCC(=O)NCCNC(=O)[C@H](CCCCN)NC(=O)OCc1ccccc1Cl [Dendrimer 3c]
Minimal inhibitory concentration (MIC), S. aureus ATCC 43300 ([3]; ATCC 43300, 24 h): 141 µM (≈ 264 µg/mL)
Minimal inhibitory concentration (MIC), E. coli ATCC 25922 ([1]; ATCC 25922, 24 h): 141 µM (≈ 264 µg/mL)
Minimal inhibitory concentration (MIC), P. aeruginosa ATCC 27853 ([4]; ATCC 27853, 24 h): 141 µM (≈ 264 µg/mL)
Minimal inhibitory concentration (MIC), S. aureus ATCC 25923 ([2]; ATCC 25923, 24 h): 24.7 µM (≈ 46.2 µg/mL)
